Reference: publication PMC9207806 (ACS Chemical Biology, 2022)
Read-outs that look alike come from different tables or passages of the source.

What was measured:
D9 [1] = target: T1, D9 (Vaccinia virus, UniProt P04311); details: cited from earlier work
T1 construct: His-tag (C); made in house

D9 [2] = target: T1, D9; type: biochemical; details: 30 μM compound, 25 nM D9, 30 °C, 2 h, RP HPLC
VACV D9 decapping enzyme = target: T2, VACV D9 decapping enzyme (Vaccinia virus, UniProt P04311); assay: biochemical; type: biochemical
T2 construct: His-tag (C); made in house
Procedure: (§1) Point fluorescence measurements were performed using the BioTek Synergy H1 microplate reader. Before each measurement, the reaction buffer was degassed. Experiments were performed in the Greiner 96-well, black, non-binding plates at 30 °C. Before the measurement, the plate was preincubated for 15 min at 30 °C with mixing (300 rpm). The point fluorescence was registered with 1 min interval and detection at 345 nm excitation wavelength and 378 nm emission wavelength.
Experiments to determine IC50 parameters were performed as point fluorescence measurements. Each well contained an appropriate buffer (10 mM MOPS·HCl, pH 7.0, 100 mM KOAc, containing 2 mM MgCl2, 0.3 mM MnCl2, and 2 mM DTT) with addition of 0.1% BSA, a fluorescent substrate (3 μM of probe 1b), an inhibitor (in half-logarithmic dilution, cinh ∈ 0, 100 μM), and an enzyme (5 nM of D9) to a final volume of 150 μL. To determine the IC50 values, a three parameter dose–response formula with standard hill slope from GraphPad Prism software was fitted [drawing 3] where V/V0 is the relative initial rate of the reaction, Imin and Imax are bottom and top plateaus, and Cinh is the concentration of the inhibitor.

SpDcp1/Dcp2 = details: cited from earlier work
VACV D10 = target: T3, VACV D10 (Vaccinia virus, UniProt P04312); type: biochemical
T3 construct: made in house

human Dcp1/2 complex = target: T4, human Dcp1/2 complex (Homo sapiens, UniProt Q8IU60); type: biochemical; details: 11 nM hDcp1/2, inhibitor up to 100 μM, 37 °C, 1 h
T4 construct: His-tag; made in house; host or cells: E. coli BL21(DE3) RIL

D9 [3] = target: T1, D9; assay: Time-dependent fluorescence changes of probes 1a-1e on D9 cleavage; type: biochemical; details: probe 100 nM, D9 50 nM, pH 7.5 (Figure S1)
Procedure: Fluorescence emission spectra were recorded using the Agilent Cary Eclipse fluorescence spectrophotometer equipped with the xenon lamp under temperature-controlled conditions. All experiments were performed at 37 °C in the Hellma quartz cuvette (10 × 4 mm) with a sample volume 1000 μL in 10 mM Tris·HCl (pH 7.5), 100 mM KOAc, 2 mM MgCl2, 0.5 mM MnCl2, and 2 mM DTT. Before each measurement, the buffer was degassed. Emission spectra were registered for all excitation maxima (detailed wavelengths for each probe: 1a—exc. 490/em. 512 nm; 1b, 1d, and 1e—345/378 nm; and 1c—420/489 nm).

[4] = tested on: C[n+]1cn([C@@H]2O[C@H](COP(=O)(O)OP(=O)([O-])OP(=O)(O)CCc3cn(CCOCCOCCNC(=O)Cc4ccc5ccc6cccc7ccc4c5c67)nn3)[C@@H](O)[C@H]2O)c2nc(N)[nH]c(=O)c21; assay: Michaelis-Menten kinetics of probe 1b hydrolysis by D9; type: biochemical, Vaccinia virus; details: other: probe 0-15 μM, 5 nM D9; means of three experiments ± SEM; pH 7.0; 30.0 °C
Procedure: as §1
To determine the kinetic parameters of enzymatic hydrolysis of probe 1b by D9 enzyme, point fluorescence measurements were performed. Each well of the plate contained an appropriate buffer (10 mM MOPS·HCl, pH 7.0, 100 mM KOAc, containing 2 mM MgCl2, 0.3 mM MnCl2, and 2 mM DTT) with addition of 0.1% BSA, a substrate (probe 1b at a concentration range 0–15 μM) and an enzyme (5 nM of D9) to a final volume of 150 μL. The measurement was carried out on until full saturation, which allowed us to convert the initial rates from au/min to mol/min/mg. The initial rates were calculated by fitting a linear curve to the first 10 points (10 min) of the hydrolysis reaction. […]

[5] = in-house nucleotide library (Table S1, Figure 3), 3 μM probe 1b, 5 nM D9, 30 °C, means of 3 independent experiments ± SEM, read-out: IC50, nucleotide-derived compounds, FLINT HTS assay
[6] = read-out: IC50, nucleotide-derived compounds, FLINT HTS assay, in-house nucleotide library (Table S1, Figure 3), 3 μM probe 1b, 5 nM D9, 30 °C, means of 3 independent experiments ± SEM

Cn1c[n+]([C@@H]2O[C@H](COP(=O)(O)OP(=O)([O-])OP(=O)(O)OC[C@H]3O[C@@H](n4cnc5c(=O)[nH]c(N)nc54)[C@H](O)[C@@H]3O)[C@@H](O)[C@H]2O)c2nc(N)[nH]c(=O)c21 [m7GpppG]
D9 inhibition (literature) (D9 [1]): less potent D9 inhibitors | susceptibility to hydrolysis by D9 (D9 [2]): very poor D9 substrates | IC50 (VACV D9 decapping enzyme; LOPAC hits and reference compounds (Table 2), 3 μM probe 1b, 5 nM D9, 30 °C, mean ± SEM of three experiments, read-out: IC50, inhibitors identified by HTS screening): 15 ± 2 µM | IC50 (VACV D9 decapping enzyme; [5]): 11.3 ± 1.9 µM

C[n+]1cn([C@@H]2O[C@H](COP(=O)([S-])OP(=O)(O)OP(=O)(O)OP(=O)([S-])OC[C@H]3O[C@@H](n4c[n+](C)c5c(O)nc(N)nc54)[C@H](O)[C@@H]3O)[C@@H](O)[C@H]2O)c2nc(N)nc(O)c21 (stereo partly drawn) [m7GpSpppSm7G D3]
inhibition of yeast decapping enzyme SpDcp1/Dcp2 (literature) (SpDcp1/Dcp2): inhibitor | IC50 (VACV D9 decapping enzyme; [6]): 3.6 ± 0.4 µM

C[n+]1cn([C@@H]2O[C@H](COP(=O)(O)OP(=O)([O-])OP(=O)(O)CP(=O)(O)O)[C@@H](O)[C@H]2O)c2nc(N)nc(O)c21 [m7GpppCH2p]
inhibitory activity toward D10 (VACV D10): weak inhibitory activity | IC50 (VACV D9 decapping enzyme; [6]): ~0.08 µM

CC[C@H](CO)Nc1nc(NCc2ccccc2)c2ncn(C(C)C)c2n1 [seliciclib, reference compound]
inhibitory activity toward D10 (VACV D10): very low inhibitory activity | inhibitory activity toward Dcp1/2 (human Dcp1/2 complex): very low inhibitory activity

Cc1cc(C)n2c1C=C1C=CC(CNC(=O)CSP(=O)([O-])OP(=O)(O)OP(=O)(O)OC[C@H]3O[C@@H](n4c[n+](C)c5c(=O)[nH]c(N)nc54)[C@H](O)[C@@H]3O)=[N+]1[B-]2(F)F [Compound 1a, m^7GTPγS-BODIPY-FL]
time to complete hydrolysis by D9 (D9 [3]): ~ 40 min

VACV D9 decapping enzyme (Vaccinia virus WR)
Km [4]: 12.9 ± 2.2 µM | kcat/Km [4]: 6300 ± 1200 M⁻¹ s⁻¹

C[n+]1cn([C@@H]2O[C@H](COP(=O)(O)OP(=O)([O-])OP(=O)(O)CCc3cn(CCOCCOCCNC(=O)Cc4ccc5ccc6cccc7ccc4c5c67)nn3)[C@@H](O)[C@H]2O)c2nc(N)[nH]c(=O)c21 [Compound 1b, m^7GTP-Py]
time to complete hydrolysis by D9 (D9 [3]): ~ 40 min

C[n+]1cn([C@@H]2O[C@H](COP(=O)([O-])OP(=O)(O)O)[C@@H](O)[C@H]2O)c2nc(N)[nH]c(=O)c21 [m7GDP]
D9 inhibition (literature) (D9 [1]): less potent D9 inhibitors | IC50 (VACV D9 decapping enzyme): 14.2 ± 2.4 µM

CO[C@@H]1[C@H](OP(=O)(O)OC[C@H]2O[C@@H](n3cnc4c(=O)[nH]c(N)nc43)[C@H](O)[C@@H]2O)[C@@H](COP(=O)(O)OP(=O)(O)OP(=O)([O-])OC[C@H]2O[C@@H]([n+]3cn(C)c4c(=O)[nH]c(N)nc43)[C@H](O)[C@@H]2O)O[C@H]1n1cnc2c(N)ncnc21 [m7GpppAmpG]
IC50 (VACV D9 decapping enzyme; [5]): 20.4 ± 3.4 µM

CNc1ncnc2c1ncn2[C@@H]1O[C@H](COP(=O)(O)OP(=O)(O)OP(=O)(O)OC[C@H]2O[C@@H](n3c[n+](C)c4c(=O)[nH]c(N)nc43)[C@H](O)[C@@H]2O)[C@@H](OP(=O)(O)OC[C@H]2O[C@@H](n3cnc4c(=O)[nH]c(N)nc43)[C@H](O)[C@@H]2O)[C@H]1O [m7Gpppm6ApG]
IC50 (VACV D9 decapping enzyme; [5]): 16.9 ± 3.2 µM

Cn1c[n+]([C@@H]2O[C@H](COP(=O)([O-])OP(=O)(O)OP(=O)(O)O)[C@@H](O)[C@H]2O)c2nc(N)[nH]c(=O)c21 [m7GTP]
D9 inhibition (literature) (D9 [1]): less potent D9 inhibitors | susceptibility to hydrolysis by D9 (D9 [2]): very poor D9 substrates | IC50 (VACV D9 decapping enzyme; [5]): 0.77 ± 0.06 µM

Gpp-SCH2-triazole-m7G
IC50 (VACV D9 decapping enzyme; [5]): > 100 µM

C[n+]1cn([C@@H]2O[C@H](COP([O-])(=S)OP(=O)(O)O)[C@@H](O)[C@H]2O)c2nc(N)[nH]c(=O)c21 (stereo partly drawn) [m7GDPαS D1]
IC50 (VACV D9 decapping enzyme; [5]): 8.3 ± 1.7 µM

m7GppCCppG
IC50 (VACV D9 decapping enzyme; [5]): 24.4 ± 4 µM
